Results as given in the NIST ThermoML archive (doi:10.1016/j.jct.2008.12.015).
Numbers after ± are expanded uncertainties.

Legend:
[1] = Crystal; for mass density: 298.15 K, 101.33 kPa; for Normal melting temperature: DTA
[2] = molar enthalpy of vaporization or sublimation; conditions: Static calorimetry

Row | mass density [1] | Normal melting temperature [1] | molar enthalpy ([2]; 399.15 K, Crystal) | molar enthalpy ([2]; 322.65 K, Crystal) | molar enthalpy ([2]; 334 K, Liquid) | SMILES
1 | 950 kg/m3 | 127.7 ± 0.4 °C | 23.8 ± 0.406 kcal/mol | – | – | CC(C)(C)c1ccc(-c2ccc(C(C)(C)C)cc2)cc1 [4,4'-bis(1,1-dimethylethyl)-1,1'-biphenyl]
2 | 1030 kg/m3 | 51.6 ± 0.4 °C | – | 23.3 ± 0.382 kcal/mol | 18.4 ± 0.206 kcal/mol | CC(C)(C)c1ccc(-c2ccccc2)cc1 [4-(1,1-dimethylethyl)-1,1'-biphenyl]
